From PMC11373624, “Development and preclinical characterization of a novel radiotheranostic EphA2-targeting bicyclic peptide” (Theranostics, 2024) come the findings set out here.

For the test, the target named is T1, Human EphA2 (Homo sapiens, UniProt P29317).
T1 construct: Human EphA2 (residues 27-529) was cloned into pEXPR-IBA44; made in house; host or cells: HEK293 f/s cells
Description: SPR binding to human EphA2. On the procedure:
Human EphA2 (residues 27-529) was cloned into pEXPR-IBA44 between the 5' NheI and 3' BsaI sites to make constructs expressing a BM40 signal sequence and C-terminal 6xHIS tag. For the expression and purification of the protein, HEK293 f/s cells at 1 x 10^6/mL in freestyle media (Thermo Fisher) were transfected with 1 µg DNA per million cells by PEI either 2:1 or 3:1 PEI:DNA ratio. On day 2 valproic acid was added to a 2.2 mM concentration. The supernatant was harvested 5 days post transfection and loaded on a 1 ml Ni-NTA agarose resin (Thermo Fisher) (wash buffer: 20 mM HEPES pH 7.6, 0.5 M NaCl, 5 mM imidazole, 0.01% Tween-20 buffer; elution buffer: 20 mM HEPES pH 7.6, 0.5 M NaCl, 300 mM imidazole, 0.01% Tween-20). The protein was concentrated to a volume of 2 mL, loaded onto an S-200 Superdex column (GE Healthcare) and eluted with 20 mM HEPES pH 7.6, 150 mM NaCl, 0.01% Tween-20 at a flow rate of 1 mL/min. Fractions were collected and those containing human EphA2 protein were concentrated for further use.
SPR experiments were performed on a Biacore 8K+ (Cytiva Life Sciences, USA) instrument, with methods matched for both human and mouse EphA2 protein. Protein was captured on to a Cytiva NTA sensor chip (Cytiva Life Sciences), via the expressed His-tag; this was followed by primary amine coupling chemistry to covalently immobilize the protein to the chip at 25°C. Initially the surface was injected with 0.5 mM NiCl2 for 2 minutes, followed by activation of the carboxymethyl dextran surface for 7 minutes using an injection of a 1:1 ratio of 0.4 M 1-ethyl-3-(3-dimethylaminopropyl) carbodiimide hydrochloride (EDC)/0.1 M N-hydroxy succinimide (NHS) at a flow rate of 10 µL/min.
Human EphA2 protein was captured to the Ni-NTA surface to a level of 200-300 RU and Mouse EphA2 to 500-800 RU; the residual activated groups were then blocked with a 7 minute injection of 1 M ethanolamine (pH 8.5):HBS-N (1:1). Finally, the Ni-NTA surface was chelated with a 1-minute injection of 350 mM EDTA.
Peptide was prepared in PBS/0.05% Tween 20 with a final DMSO concentration of 0.5%. The top peptide concentration was 100 or 500 nM and 5 further 3-fold dilutions. The peptide was titrated over the chip using single cycle kinetics at 25°C at a flow rate of 75 µL/min with 60 second association and 4000 second dissociation. All data were double referenced for blank injections and reference surface using standard processing procedures. Data was characterized with a 1:1 kinetic binding model to determine kinetic rate constants ka (M^-1s^-1) and kd (s^-1) and equilibrium dissociation constant KD (nM). All data processing was performed using Cytiva Insight Evaluation (Cytiva Life Sciences, USA).
A general note: SPR reads the build-up and loss of mass on a sensor chip optically.

Numbered stars: 1 amine (or outer) side, 2 acyl side, 3 side chain; on linkers, the order of the positions; unused ones are H or OH. Bridge positions count the residues as written; N and C are the ends. Square brackets hold non-standard residues; d marks the D form. Peptide text beside a SMILES is read from it. * marks the point of attachment. DOTA = O=C(O)CN1CCN(CC(=O)O)CCN(CC(=O)*)CCN(CC(=O)O)CC1; TATA = O=C(CC[*:1])N1CN(C(=O)CC[*:2])CN(C(=O)CC[*:3])C1; d(hArg) = N=C(N)NCCCC[C@@H](N)C(=O)O; dHyp = O=C(O)[C@H]1C[C@H](O)CN1; dCba = N[C@H](CC1CCC1)C(=O)O; βAla = NCCC(=O)O; Sar = CNCC(=O)O Some results are limits rather than exact numbers.

T1 sequence (P29317 27-529): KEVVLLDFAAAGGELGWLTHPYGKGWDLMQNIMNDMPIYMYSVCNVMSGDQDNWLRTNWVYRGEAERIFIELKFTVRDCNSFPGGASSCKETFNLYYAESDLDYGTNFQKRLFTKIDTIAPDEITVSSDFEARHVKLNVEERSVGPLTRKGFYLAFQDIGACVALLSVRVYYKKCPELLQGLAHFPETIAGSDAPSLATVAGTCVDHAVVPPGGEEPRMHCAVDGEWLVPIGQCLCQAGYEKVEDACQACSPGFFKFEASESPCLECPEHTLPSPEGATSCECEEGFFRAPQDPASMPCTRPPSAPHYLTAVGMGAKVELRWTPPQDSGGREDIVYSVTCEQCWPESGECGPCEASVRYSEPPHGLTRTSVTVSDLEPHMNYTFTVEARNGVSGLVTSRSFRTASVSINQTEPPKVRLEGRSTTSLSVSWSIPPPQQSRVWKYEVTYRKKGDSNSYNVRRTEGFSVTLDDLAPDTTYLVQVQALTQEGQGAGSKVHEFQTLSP

In the case of `CC(C)C[C@H]1NC(=O)[C@H]2CCCN2C(=O)[C@@H](CC(N)=O)NC(=O)[C@@H](C(C)C)NC(=O)[C@@H](CC2CCC2)NC(=O)[C@H]2C[C@H](O)CN2C(=O)[C@H](NC(=O)[C@@H](CC(=O)O)NC(=O)[C@@H](CCCCNC(=N)N)NC(=O)[C@@H](C)NC(=O)CN(C)C(=O)CN(C)C(=O)CN(C)C(=O)CN(C)C(=O)CN(C)C(=O)CN(C)C(=O)CN(C)C(=O)CN(C)C(=O)CN(C)C(=O)CN(C)C(=O)CCNC(=O)CN2CCN(CC(=O)O)CCN(CC(=O)O)CCN(CC(=O)O)CC2)CSCCC(=O)N2CN3CN(C2)C(=O)CCSC[C@@H](NC1=O)C(=O)N[C@H](CC(C)C)C(=O)N[C@H](Cc1c[nH]cn1)C(=O)N1CCC[C@@H]1C(=O)N[C@@H](CC(=O)O)C(=O)N[C@H](Cc1c[nH]c2ccccc12)C(=O)N[C@H](CCCCNC(=N)N)C(=O)N[C@@H](C(N)=O)CSCCC3=O` [BCY26443, [DOTA]-[B-Ala]-[Sar10]-[dAla]-[dHArg]-[dAsp]-[dCys]-[dHyP]-[dCba]-[dVal]-[dAsn]-[dPro]-[dLeu]-[dCys]-[dLeu]-[dHis]-[dPro]-Asp-[dTrp]-[dHArg]-[dCys]-CONH2] ({DOTA-βAla}-[Sar][Sar][Sar][Sar][Sar][Sar][Sar][Sar][Sar][Sar][dA][d(hArg)][dD][dC][dHyp][dCba][dV][dN][dP][dL][dC][dL][dH][dP]D[dW][d(hArg)][dC]-NH2; linker 14-21-28 via TATA), under “human EphA2, read-out: no binding up to (peptide concentration)”, the Kd was over 5 µM. In addition, where the note is “in words”, the “binding to human EphA2 by SPR” value is “no binding”.
